Experimental data as given in patent publication US20250170239A1, “CELLULAR REPROGRAMMING BY TARGETING THE GOLGI APPARATUS” (MUSC Foundation for Research Development, priority 2023, published 2025).
Entries after “also recorded” stand apart in the source; their conditions may differ.

What was measured:
Pmel T cells [1] = conditions: H2S treated vs control
Protocol: Cells were treated+/−H2S for 3 days of activation followed by 3 days of expansion. For analysis of differentially reactive cysteine residues, the sample preparation and analysis were as described by Gottlieb et al. with minor modifications.72 Cells were lysed in freshly made 9 M urea, 50 mM Tris pH 8 buffer with 100 units/mL Universal Nuclease (Thermo Fisher, Pierce cat #88702). To label free thiols, lysis buffer was supplemented with either 55 mM of stable isotope labeled light (I12C2ONH4) or heavy (I13CD213CONH2) iodoacetamide (Sigma, cat #721328) for control or H2S treated cells, respectively. Equal amounts of heavy or light labeled proteins from 3 biological replicates were combined and reducible thiols were reduced with 70 mM dithiothreitol for 45 min at 25° C. […] Two μg aliquots of peptides from each fraction, obtained using ZipTips with 0.6 μL C18 resin (Millipore, Burlington, MA cat #ZTC18S096), were analyzed by LC-MS/MS on an Easy-nLC 1200 coupled to a Orbitrap Fusion Lumos MS (Thermo Scientific, Waltham, MA). […] Ions were detected in the orbitrap. […]
To control for changes in protein expression, an aliquot of each uncombined, labeled protein sample was analyzed using a label free proteomic approach (MaxQuant LFQ). Proteins were digested as above, and peptides were analyzed using an U3000 nano LC system coupled to an Orbitrap Elite MS (Thermo Scientific). […]

Golgi^lo T cells = conditions: GYY4137 (0.5 mM) 3 days, stimulated with gp100
From the text: Cells were subsequently stimulated with gp100 antigen and analyzed for production of cytokines by FACS (n=4). (FIG. 25B) Quantification of FACS MFI values for MitoTracker Deep Red FM stain in Golgi^hi vs. Golgi^lo cells (n=4 independent samples). (FIG. 25C) Real-time flux in OCR measured using Seahorse metabolic flux analysis. Shown is the quantification of mean oxygen consumption rate (OCR) throughout the assay, spare respiratory capacity (SRC), maximal respiration, and basal respiration (n=experimental replicates representative of 3 separate experiments). (FIG. 25D) FACS sorted Golgi^hi vs. Golgi^lo melanoma epitope gp100 TCR reactive CD8+ T cells from Pmel mouse were analyzed using transmission electron microscopy (TEM) to evaluate mitochondria and Golgi morphology. (FIG. 25E-25H) Global metabolomics analysis was performed on Golgi^hi vs. Golgi^lo Pmel T cells and analyzed for PCA (FIG. 25E) and pathway enrichment (FIG. 25F). […] (FIGS. 25M and 25N) Human CD19 CAR-T cells were expanded and sorted into Golgi^hi and Golgi^lo based on BODIPY TR Ceramide dye fluorescence and were co-cultured at a 1:1 ratio with Raji cells. (FIG. 25M) The percentage of viable Raji cells remaining after 24 hours was analyzed using FACS. (FIG. 25N) Expression of Perforin and Granzyme B was assessed using FACS in sorted CD19 CAR-T cells following co-culture with Raji cells. […]

Prdx4 knockdown T cells = test: Prdx4 siRNA knockdown Pmel T cells under Golgi/oxidative stress; format: cell-based, mouse
Protocol: (FIG. 22A) Pmel T cells were activated for 3 days before treatment with vehicle or 50 mM H2O2 for 6 hrs. Prdx4-Golgi colocalization was assessed by PLA using mouse anti-Giantin and rabbit anti-Prdx4 antibodies. (FIG. 22B) Activated Pmel T cells treated with vehicle or 50 mM H2O2 for 6 hrs or 24 hrs with Monensin (1 mM). PLA assay was performed using anti-Giantin and anti-Prdx4 antibodies. (FIG. 22C) Experimental design using Prdx4-targeted siRNA to silence expression of Prdx4 in Pmel T cells. (FIG. 22D) GM130 expression assessed under control versus Monensin (1 μM) conditions in T cells treated with control-siRNA or Prdx4-siRNA. (FIG. 22E) GM130 expression assessed under control versus 50 mM H2O2 conditions in T cells treated with control-siRNA or Prdx4-siRNA+/−0.5 mM GYY4137. (FIG. 22F) Protein translation assessed in Pmel T cells activated+/−GYY4137 and treated with control-siRNA or Prdx4-siRNA. (FIG. 22G) GM130 expression in Pmel T cells treated with vehicle, GYY4137, or Catalase (10 μg/mL). (FIGS. 22H and 22I) Site directed mutagenesis performed to mutate cysteine-54 of the Prdx4 gene. Prdx4-targeted shRNA was used to knock down expression of Prdx4 in Jurkat T cells, followed by transfection with plasmid containing wildtype or mutated Prdx4. (FIG. 22I) GM130 expression assessed after treatment with 50 mM H2O2+/−GYY4137. (FIG. 22J) B16-F10 tumors were injected s.c. into flanks of Pmel mice and grown to ˜100 mm2. TILs and T cells from tumor-draining lymph nodes were isolated via Ficoll spin followed by magnetic bead positive selection. FACS analysis of Prdx4 expression in TILs gated on PD1loLag3lo vs PD1hiLag3hi. (FIG. 22K) Lentiviral supernatant was generated using GFP-tagged control plasmid or GFP-tagged Prdx4-overexpression plasmid. Pmel T cells were transduced with control or Prdx4 lentivirus. Pmel T cells overexpressing Prdx4 and control T cells were treated with H2O2 (50 mM) followed by staining with anti-GM130.
Given the delicate redox balance necessary for the native disulfide bonds, it was postulated that a localized mechanism for the detection and elimination of ROS produced during the oxidative folding process may require Prdx4. Thus, it was hypothesized that ER and Golgi network stress mitigated by H2S is mediated through the Prdx4 localization and activity in these organelles. First, it was established if Prdx4 also localizes within the Golgi apparatus in T cells using a proximity ligation assay (PLA), a tool that allows in situ detection of endogenous proteins with high specificity and sensitivity, with antibodies directed against Giantin (a conserved Golgi membrane protein) and Prdx4. […] Next, using siRNA targeting Prdx4, expression of Prdx4 in CD8+ Pmel T cells was knocked down (FIG. 22C, FIGS. 23A and 23B). The cells were then subjected to conditions of oxidative and Golgi stress in the presence or absence of H2S treatment. […] Then, to determine whether the protective effect of H2S on Golgi stress is dependent on the presence of Prdx4, Golgi stress was induced in the presence or absence of H2S with control (siCtl) and Prdx4 knockdown (siPrdx4) T cells.

Pmel T cells [2] = test system: Pmel T cells
Protocol: On day 3, the cells were collected for RNA-sequencing analysis (n=3 independent samples). (FIG. 14A) Principle component analysis (PCA) of control versus H2S-treated samples. […] (FIG. 14E) Schematic of experimental design for cytokine and translation assays. (FIG. 14F) Pmel CD8+ T cells were activated for 3 days with gp100 and IL2+/−0.5 mM GYY4137. On day 3, the cells were washed and re-stimulated with gp100 for 4 hours, followed by measurement of cytokine production via FACS. (FIG. 14G) Active protein translation was assessed using Click-iT Plus OPP Alexa Fluor 647 Protein Synthesis Assay Kit (ThermoFisher) (n=3 independent samples) in Pmel T cells after re-stimulation (n=3 independent samples). (FIG. 14H) Levels of EIF2a, phosphorylated 4EBP1, and phosphorylated rS6 evaluated via FACS in Pmel T cells after re-stimulation (n=4 independent samples). (FIG. 14I) Pmel CD8+ T cells were activated for 2 days with gp100 and IL2 followed by transduction with either control lentivirus or CBS-expressing lentivirus. On day 5, the cells were washed and re-stimulated with gp100 for 4 hours. Quantification of protein translation assessed using Click-iT Plus OPP Alexa Fluor 647 Protein Synthesis Assay Kit and quantification intracellular cytokines assessed using FACS (n=3 independent samples). MFI represents mean fluorescence intensity.
Pmel T cells were re-stimulated with gp100 peptide (0.1 μg/mL) and Click-iT™ Plus OPP Alexa Fluor™ 647 Protein Synthesis Assay Kit (ThermoFisher Scientific #C10458) was used to measure protein translation using flow cytometry following the manufacturer's protocol.

Pmel CD8+ T cells [3] = conditions: 3 days gp100 and IL2 +/− 0.5 mM GYY4137
Protocol: Next, the effect of H2S treatment on the transcriptomic profile of anti-tumor T cells was determined. Pmel CD8+ T cells were activated and expanded in the presence or absence of the H2S donor prior to RNA-sequencing.
Cells were immediately pelleted by centrifugation at 4° C. and resuspended in 1 mL Trizol. RNA concentration was measured using a NanoDrop 8000. RNA quality was assessed using an Agilent 4200 TapeStation and RINe values ranged from 9.7-10. […] Dual-indexed libraries were pooled to and sequenced at VANTAGE (Vanderbilt University Medical Center) on an Illumina NovaSeq 6000 (S4 flow cell) to a depth of approximately 25 million paired-end 150 bp reads per library. Reads were aligned to the mouse mm10 reference genome using STAR (v2.7.1a). Only uniquely mapped reads were retained for further analyses. Quality control metrics were assessed by Picard tool (http://broadinstitute.github.io/picard/). Gencode annotation for mm10 (version M25) was used as reference alignment annotation and downstream quantification. Gene level expression was calculated using featureCounts (v2.0.1). Counts were calculated based on protein-coding genes from the annotation file. Counts were normalized using counts per million reads (CPM). Genes with no reads in either Control or Treated samples were removed. […]

Pmel CD8+ T cells [4] = conditions: 3 days gp100 and IL2 +/− 0.5 mM GYY4137; remark: listed apart in the source
Protocol: Different metabolites' intracellular levels were determined by performing comprehensive hydrophilic metabolites analysis using LC/MS platform (Metabolomics Core Facility, Northwestern University). Data were then analyzed using MetaboAnalyst software. Samples were loaded equivalently across the platform and normalized to Bradford values before statistical analysis.

Pmel T cells [5] = conditions: activated in presence of H2S donor
Protocol: Oxygen consumption rate (OCR) and extracellular acidification rate (ECAR) were determined using the Seahorse Xfe96 analyzer (Agilent Technologies, Santa Clara, CA). Briefly, T cells (0.5×10^6/well) were plated on a Cell-Tak coated Seahorse culture plate for 30 min. OCR, a measure of OXPHOS, was analyzed under basal condition, or in response to 1.0 μM oligomycin, 1.0 μM fluoro-carbonyl cyanide phenylhydrazone (FCCP) and 2 μM rotenone, plus 100 nM antimycin A. ECAR, a measure of glycolysis, was measured under basal conditions and in response to glucose (5.5 mM), Oligomycin (1.0 μM), and 2-deoxyglucose (2-DG) (100 mM). All reagents were purchased from Sigma-Aldrich, St. Louis, MO.

Pmel CD8+ T cells [6] = test: FACS phenotyping (Tcm, stemness markers) of activated Pmel T cells; format: cell-based, mouse
From the text: It was next determined if restoring H2S levels in activated T cells would alter their phenotype. To achieve steady-state levels of H2S in the T cell culture media, water-soluble H2S donor GYY4137 that slowly releases sustained levels of H2S up to 7 days in culture was used (Lee Z. W., et al., 2011, PLOS One, 6(6):e21077).

SMILES: C1COCCN1.COc1ccc(P(=S)(S)N2CCOCC2)cc1 (centres unmarked) [GYY4137]
- free thiols / abundance of ER proteins Prdx4, Ero1, MANF1, Rp17a (Pmel T cells [1]): enhanced abundance or an increase in the extent of free thiols
- free thiols at cysteine 54 in Prdx4 (Pmel T cells [1]): increase in free thiols at cysteine 54 in Prdx4
- effector functions (cytokines by FACS) of Golgi^lo T cells (Golgi^lo T cells): partial restoration of their effector functions
- GM130 expression under Golgi stress, control (siCtl) T cells (Prdx4 knockdown T cells; 50 mM H2O2 +/− 0.5 mM GYY4137): prevented the decrease in GM130 expression
- GM130 expression under Golgi stress, Prdx4 knockdown (siPrdx4) T cells (Prdx4 knockdown T cells; 50 mM H2O2 +/− 0.5 mM GYY4137, listed as H2S): protective effect was absent; also recorded: absent when Prdx4 was knocked down
- increase in protein translation, Prdx4 knockdown T cells (Prdx4 knockdown T cells; +/− GYY4137): not observed
- phosphorylation of 4EBP1 (Pmel T cells [2]; FACS after re-stimulation): increased phosphorylation of 4EBP1
- total EIF2α and phosphorylated S6 ribosomal protein (Pmel T cells [2]; FACS after re-stimulation): increased total levels of EIF2α and phosphorylated levels of S6 ribosomal protein
- overall protein translation (OPP incorporation) (Pmel T cells [2]; upon re-stimulation with cognate antigen): significantly enhanced upregulation of overall protein translation
- significantly upregulated pathways (Pmel CD8+ T cells [3]): pathways related to immune receptor activity, T cell signaling, and cytokine activity
- transcriptomic profile (PCA) (Pmel CD8+ T cells [3]): distinct transcriptomic profile
- levels of NAD+ (Pmel CD8+ T cells [4]): increased levels of NAD+
- levels of nicotinamide (Pmel CD8+ T cells [4]): decreased levels of nicotinamide
- metabolite profile (Pmel CD8+ T cells [4]): distinct profile of metabolites
- basal respiration (Pmel T cells [5]): did not alter basal respiration
- maximal respiration (Pmel T cells [5]): significant increase
- spare respiratory capacity (SRC) (Pmel T cells [5]): significant increase
- maintenance of increase in Tcm phenotype over time (Pmel CD8+ T cells [6]; FACS at day 0, 2, 4, 6, GYY4137 0.5 mM): consistently maintained over six days
- expression of Tcf7 and Sca1 (stemness markers) (Pmel CD8+ T cells [6]; GYY4137 0.5 mM, 3 days): significantly enhanced the expression of Tcf7 and Sca1
- Tcm phenotype (CD62L+CD44+ co-expression) (Pmel CD8+ T cells [6]; Pmel T cells activated with gp100 + IL2, GYY4137 0.5 mM, compared to IL2 alone): significant increase in the Tcm phenotype
